# From US11891628B2, “Method for biomimetic culture of urothelial cells and uses thereof” (China Medical University, priority 2018, dated 2024)
# Legend:
# [1] = tested on: MBT-2-luc orthotopic graft bladder tumor; assay: Orthotopic MBT-2-luc graft bladder tumor mouse model
# Method: The tumor bearing mice were enrolled when tumor bioluminescent signal reached 10^5 total plex and treated according to the treatment scheme (A).
# Tumors from mice of different treatment groups were harvested, processed and sectioned for tumor cell Ki-67 IHC and TUNEL assay. Tumor sections were evaluated for cell proliferation 45 with Ki-67 IHC staining (A). Ki-67 positive cells on tumor sections were counted and quantified from mice of 3 independent experiments (B). Tumor sections were stained with TUNEL (FITC) and observed under a fluorescent microscope (C). DAPI was used for nuclear staining. TUNEL positive cells on tumor sections were counted and quantified from mice of 3 independent experiments (D). Values are expressed as mean±standard error of the mean (n=3). *p<0.05; **p<0.01; ***p<0.001, by Student's t test. Scale bar, 50 μm.
# Tumors from mice given different treatments were analyzed by IHC for lymphocyte and NK cell infiltration. Representative images of anti-CD4 (A), CD8 (B) and NKG2D (C) IHC staining on tumor sections. Quantification of CD4+ T lymphocytes (D), CD8+T lymphocytes (E) and NKG2D+ NK cells (F) in tumors for each treatment group by counting the positive cells in four randomly selected HPFs among 3 mice in each group, and data were expressed as the means±SD. Error bars represent SD. *p<0.05; **p<0.01; ***p<0.001, by Student's t test.
# Female C3H/HeJ 9-week-old mice were used to establish the intramural orthotopic model. MBT-2 murine urothelial carcinoma cells stably expressing luciferase gene (MBT-2-luc) were intramuscularly injected to mouse bladder walls and capture tumor imaged by Xenogen IVIS 200 once per week. The mice are divided control and experiment groups when tumors are reached around 1×10^5 p/s total flux in bioluminescence imaging. The tumor bearing mice were divided into 4 treatment groups: (i). Vehicle control, (ii). Xenogeneic urothelial cell: intravesical of instillation xenogeneic urothelial cells (1×10^6 cells), once a week, day 3 for 4 weeks, (iii). […] A 24-gauge catheter is introduced into the lumen of the bladder through the urethra. Xenogeneic urothelial cells, 1×10^6 in a 100 μl suspension is then injected into the bladder. To prevent voiding of the xenogeneic urothelial cells, the catheter is held in place for at least 40 minutes with the injection syringe attached. The catheter is removed before the mouse recovered from anesthesia. The responses of mice are analyzed on BLI total flux intensity changes from the baseline.
# [2] = tested on: BBN-induced bladder tumor; assay: BBN-induced bladder tumor mouse model; assay type: in vivo, mice
# Method: FIG. 9. […] Tumor-bearing mice were treated according to the experimental scheme (A). Representative photographs of the gross tumors from mice with different treatments (B). Tumor weights of the different treatment groups (C) (mean±SD, at least 9 mice from 3 independent experiments). Representative H&E stained images of tumors of different treatment groups (D). Histograms of the pathological analysis for the proportions of hyperplastic and neoplastic changes in bladder H&E stained section of mice with different treatments (E). *p<0.05; **p<0.01 by Student's t test.
# For BBN-induced bladder tumor formation, a 0.05% concentration of BBN (TCI America, Portland, OR) was dissolved in drinking water, and BBN-containing water in a dark bottle was provided to 8-10 week old female C57BL/6 mice ad libitum for 10-20 weeks until hematuria score is over 2+ (Arkray Aution Sticks urine strip) as a sign of bladder tumor formation. […]
# To test the anti-tumor effects of intravesical xenogeneic cell therapy in combination with chemotherapeutic agents in delaying tumor progression, BBN-induced tumor mouse model, which simulates the human bladder tumorigenesis from hyperplasia, carcinoma in situ (CIS) to invasive carcinoma was used. […] The progression of BBN-induced bladder tumors in the treatment groups and control group was assessed by macroscopic and histopathological examination from harvested bladders. […]
# [3] = IHC on tumor sections, vs vehicle
substance,measurement,setting,value
Gemcitabine plus cisplatin [GC],NKG2D+ NK cell infiltration in tumors,[1]; [3],not observed
same,tumor CD4+ T cell infiltration,[1]; [3],increased
same,tumor CD8+ T cell infiltration,[1]; [3],increased
same,tumor growth,"[1]; bioluminescence, vs vehicle-treated groups, 4 weeks treatment",significantly decreased
same,tumor weight,[2]; harvested bladders after 4 weeks treatment,significantly reduced
same,proportion of mice progressed to invasive carcinoma,[2]; histopathological analysis of H&E sections,significantly lower
